Some test systems named below: HL-60; EKVX; OVCAR-4; SK-MEL-2; OVCAR-5; SW-620; SR; UO-31; TK-10; OVCAR-3; K562; HCT-15; NCI-H23; IGROV-1; UACC-62; ACHN; A498; MDA-MB-435; PC-3.
Holding throughout (assay): NCI-60 cell line screen, 48 h

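Exposure lasted 48 hours, with cells grown in 96-well plates and compounds tested at five concentrations. GI50 marks 50% less growth.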 Active and inactive are the calls of the source. No stated cut-off is given here; in the data, active = GI50 up to about 1.1 µM and inactive = higher. Where only a bound is given, the exact number is not on record here.

On to `COc1ccc2nc3cc(Cl)ccc3c(NC(C)CCCN(CCCl)CCCl)c2c1` (configuration not stated), for which the GI50 in the test on HL-60 is 0.12 µM (active); with EKVX, 0.787 µM (active); with OVCAR-4 it was 0.849 µM (active); in the test on SK-MEL-2 it was 1.1 µM (active); with OVCAR-5 it was 0.929 µM (active); in the test with SW-620, 0.116 µM (active). Moreover, the GI50 was 0.0463 µM (active) in the test on SR; 2.04 µM (inactive) in the test on UO-31; 1.3 µM (inactive) with TK-10; 0.853 µM (active) in the test on OVCAR-3; 0.262 µM (active) in the test with K562; 1.11 µM with HCT-15. For the same molecule, the GI50 is 0.51 µM (active) with NCI-H23; 0.317 µM (active) with IGROV-1; 0.29 µM (active) in the test on UACC-62; 0.161 µM (active) with ACHN; 3.12 µM (inactive) in the test with A498.
For the molecule `C[n+]1c2ccccc2c(CNC(CS)C(=O)O)c2ccccc21` (configuration not stated), the GI50 was 17.3 µM (inactive) with HL-60; 19 µM (inactive) in the test on EKVX; 28.1 µM (inactive) in the test with OVCAR-4; 26.8 µM (inactive) with SK-MEL-2; 44.5 µM (inactive) with OVCAR-5; 32.4 µM (inactive) with SW-620. Also, the GI50 in the test with SR was 12.7 µM (inactive); with UO-31, 18 µM (inactive); in the test on TK-10, 39.1 µM (inactive); with OVCAR-3, 24.4 µM (inactive); in the test with K562, 31.8 µM (inactive); in the test on HCT-15 it was 20.7 µM. Besides, the GI50 was 25.9 µM (inactive) in the test on NCI-H23; 18.8 µM (inactive) in the test on IGROV-1; 14.6 µM (inactive) with UACC-62; 27.2 µM (inactive) in the test on ACHN; 17.2 µM (inactive) in the test on A498.
Consider `CN1C(=O)C(=Cc2ccc(Br)cc2)C(=O)N(C)C1=O`, for which the GI50 in the test with MDA-MB-435, with EKVX, with OVCAR-4, in the test with SK-MEL-2, in the test with OVCAR-5 and in the test with SW-620 was > 100 µM (inactive) throughout. Further, the GI50 with PC-3 is > 100 µM (inactive); in the test with UO-31, > 100 µM (inactive); with TK-10, > 100 µM (inactive); in the test with OVCAR-3, > 100 µM (inactive); with K562, 5.45 µM (inactive); in the test with HCT-15, above 100 µM. For the same molecule, the GI50 in the test on NCI-H23, in the test on UACC-62, in the test on ACHN and with A498 was > 100 µM (inactive) throughout.
For `Nc1ncnc2c1ncn2C1OC(COC2C(CO)OC(OC(C(=O)O)C(O)C(OP(=O)(O)O)C(O)C(=O)O)C(O)C2O)C(O)C1O` (configuration not stated), the GI50 with MDA-MB-435, in the test with HL-60, in the test with EKVX, with OVCAR-4, in the test with SK-MEL-2 and in the test on OVCAR-5 was > 100 µM (inactive) throughout. Also, the GI50 was > 100 µM (inactive) in the test with SW-620; 15.7 µM (inactive) in the test on SR; > 100 µM (inactive) in the test with PC-3; > 100 µM (inactive) in the test with TK-10; > 100 µM (inactive) with OVCAR-3; > 100 µM (inactive) with K562. The GI50 was above 100 µM with HCT-15; > 100 µM (inactive) with NCI-H23; > 100 µM (inactive) in the test on IGROV-1; 37.7 µM (inactive) with ACHN; > 100 µM (inactive) with A498.
With `CC1(C)[N+]([O-])=[N+]([O-])C1(C)Br` (configuration not stated), the GI50 in the test on MDA-MB-435, in the test with EKVX, with OVCAR-4, with SK-MEL-2, in the test on OVCAR-5 and in the test on SW-620 was > 100 µM (inactive) in each case. Besides, the GI50 is 91 µM (inactive) in the test on SR; > 100 µM (inactive) in the test on PC-3; > 100 µM (inactive) in the test on UO-31; > 100 µM (inactive) in the test on TK-10; > 100 µM (inactive) in the test on OVCAR-3; > 100 µM (inactive) in the test on K562. Moreover, the GI50 was above 100 µM in the test on HCT-15; > 100 µM (inactive) with NCI-H23; > 100 µM (inactive) with IGROV-1; > 100 µM (inactive) with UACC-62; > 100 µM (inactive) in the test with ACHN.
For the molecule `C=C1OC2OC(C)C(NC(=O)OCC(Cl)(Cl)Cl)C(OC(C)=O)C2O1` (configuration not stated), the GI50 in the test on MDA-MB-435, in the test on HL-60, in the test with EKVX, with OVCAR-4, with OVCAR-5 and in the test on SW-620 was > 100 µM (inactive) throughout. Besides, the GI50 with SR, with PC-3, with UO-31, with TK-10, with OVCAR-3 and with K562 was > 100 µM (inactive) each time. Also, the GI50 was above 100 µM in the test with HCT-15; > 100 µM (inactive) in the test on NCI-H23; > 100 µM (inactive) in the test on IGROV-1; > 100 µM (inactive) in the test with UACC-62; > 100 µM (inactive) with ACHN; > 100 µM (inactive) with A498.
For `Nc1cc(Cl)ccc1SSc1ccc(Cl)cc1N`, the GI50 in the test with MDA-MB-435 was 12.9 µM (inactive); with HL-60 it was 16 µM (inactive); in the test with EKVX it was 9.55 µM (inactive); with OVCAR-4, 13.6 µM (inactive); with SK-MEL-2 it was 17 µM (inactive); with OVCAR-5 it was 14.8 µM (inactive). Further, the GI50 in the test with SW-620 was 3.94 µM (inactive); in the test on SR, 4.32 µM (inactive); in the test on PC-3 it was 5.7 µM (inactive); in the test on UO-31, 7 µM (inactive); with TK-10, 20.2 µM (inactive); in the test with K562, 10.4 µM (inactive). Besides, the GI50 with HCT-15 was 2.99 µM; in the test with NCI-H23, 5.61 µM (inactive); in the test on IGROV-1 it was 10.1 µM (inactive); in the test on UACC-62, 2.88 µM (inactive); with ACHN, 9.55 µM (inactive).
As to `CN(C)CCNc1ccc(NCCN(C)C)c2c1C(=O)c1ncsc1C2=O`, the GI50 in the test on MDA-MB-435 is 13.6 µM (inactive); in the test on EKVX, 12.3 µM (inactive); in the test with OVCAR-4, 10.2 µM (inactive); with SK-MEL-2 it was 20.2 µM (inactive); in the test on OVCAR-5, 21.8 µM (inactive); with SW-620, 9.82 µM (inactive). The GI50 is 1.21 µM (inactive) with SR; 15.3 µM (inactive) with PC-3; 15.2 µM (inactive) in the test with UO-31; 24.8 µM (inactive) in the test on TK-10; 4.65 µM (inactive) in the test with OVCAR-3; 13.6 µM (inactive) in the test with K562. Further, the GI50 with HCT-15 is 11.4 µM; in the test with NCI-H23 it was 15.2 µM (inactive); in the test with IGROV-1 it was 13.5 µM (inactive); in the test with UACC-62 it was 11.4 µM (inactive); in the test on ACHN, 8.2 µM (inactive); in the test with A498, 14.1 µM (inactive).
On to `COc1ccc(NC(S)=Nc2cccc(C)n2)cc1`, for which the GI50 with MDA-MB-435, in the test with HL-60, in the test with EKVX, in the test with OVCAR-4, in the test with SK-MEL-2 and with SW-620 was > 100 µM (inactive) throughout. The GI50 with SR is > 100 µM (inactive); in the test with PC-3, > 100 µM (inactive); in the test with UO-31, > 100 µM (inactive); in the test with TK-10, > 100 µM (inactive); in the test with K562 it was 75.3 µM (inactive); in the test on HCT-15 it was 78.2 µM. Also, the GI50 with NCI-H23 was 84.5 µM (inactive); with IGROV-1, 70.6 µM (inactive); in the test with UACC-62, > 100 µM (inactive); in the test on ACHN, > 100 µM (inactive); with A498, > 100 µM (inactive).
For the molecule `Cc1cc2c(cc1Cl)S(=O)(=O)OC(c1ccc([N+](=O)[O-])cc1)=N2`, the GI50 with MDA-MB-435, in the test with HL-60, in the test on EKVX, with OVCAR-4, with SW-620 and in the test with SR was > 100 µM (inactive) in each case. The GI50 with PC-3 is > 100 µM (inactive); in the test with UO-31 it was > 100 µM (inactive); with TK-10, > 100 µM (inactive); in the test on OVCAR-3, > 100 µM (inactive); in the test on K562 it was 91 µM (inactive); with HCT-15, above 100 µM. In addition, the GI50 in the test on IGROV-1, in the test with UACC-62, in the test with ACHN and in the test with A498 was > 100 µM (inactive) in each case.
For the molecule `COC(=O)CCC(NC(=S)N/N=C(\C)c1cnccn1)C(=O)OC` (configuration not stated), the GI50 in the test on HL-60 is 14.8 µM (inactive); in the test on EKVX, 40 µM (inactive); with OVCAR-4, 56.2 µM (inactive); with SK-MEL-2, 68.1 µM (inactive); with OVCAR-5, 21 µM (inactive); in the test with SW-620 it was 49.3 µM (inactive). Further, the GI50 in the test with SR was 29.2 µM (inactive); in the test on UO-31, 49.1 µM (inactive); with TK-10 it was > 100 µM (inactive); with OVCAR-3 it was 34.5 µM (inactive); in the test with K562, 22.9 µM (inactive); with HCT-15, 44.5 µM. For the same molecule, the GI50 in the test with NCI-H23 was 87.5 µM (inactive); in the test with IGROV-1 it was 69.8 µM (inactive); with UACC-62, 28.6 µM (inactive); with ACHN, 29.8 µM (inactive); with A498 it was > 100 µM (inactive).
Consider `COc1ccc(CNC(=O)NCn2cc(-c3ccccc3)nn2)cc1`, for which the GI50 in the test with MDA-MB-435, in the test on HL-60, in the test on EKVX, in the test with OVCAR-4, in the test on SK-MEL-2 and in the test on OVCAR-5 was > 100 µM (inactive) throughout. Besides, the GI50 with SW-620 was > 100 µM (inactive); with SR it was > 100 µM (inactive); in the test with PC-3, > 100 µM (inactive); with TK-10, > 100 µM (inactive); in the test with K562, > 100 µM (inactive); in the test with HCT-15, above 100 µM. Moreover, the GI50 in the test on NCI-H23, with IGROV-1 and in the test with ACHN was > 100 µM (inactive) in each case.

Values taken from ChEMBL document CHEMBL1201862, “PubChem BioAssay data set” (2004).
